These are literature values, as cited in patent US7579326B2, “Gene switch systems employing regulators with decreased dimerization” (Genetronics, Inc., priority 2000, dated 2009).

pKd: −log10 of the molar value.

In data set [1] the target is palindromic 17-mer GAL-4 DNA binding site.
For data set [2] the following is noted: rats.

In general, pKd refers to the Kd on a negative log10 scale, so that one unit is a factor of ten. Turning to “GAL-4, residues 1-100: yeast GAL-4 DNA binding domain fragment, residues 1-100”, in data set [1], the negative logarithm of the Kd (pKd) is 8.52.
What is called half-life is the time needed for the level to fall by half in the phase considered. Regarding `CC#C[C@]1(O)CC[C@H]2[C@@H]3CCC4=CC(=O)CCC4=C3[C@@H](c3ccc(N(C)C)cc3)C[C@@]21C` [MFP, 11β-(4-dimethylaminophenyl)-17β-hydroxy-17α-propynyl-4,9-estradiene-3-one], the half-life in data set [2] was 1 h.
